Where a name gives a salt, the structure may show the parent alone.
Molecular target: T1, HIF-2α (Homo sapiens, UniProt Q99814)
T1 construct: 786-O is a renal carcinoma cell line that predominantly expresses HIF-2α and lacks functional HIF-1α; endogenous in cells; host or cells: 786-O cells stably carrying an HRE-driven luciferase reporter
Test: Luciferase reporter gene assay (HRE-driven luciferase in stably transfected 786-O cells)
Format: cell-based
Description: Experimental principles: 786-O is a renal carcinoma cell line that predominantly expresses HIF-2α and lacks functional HIF-1α. This characteristic makes 786-O cells an ideal model for studying HIF-2α transcriptional activity and related signaling pathways. In the luciferase reporter gene assay, a 786-O monoclonal cell line that stably expresses hypoxia response element (HRE)-driven luciferase (Luc) activity is obtained through puromycin selection. The HIF-2α agonist promotes dimerization of HIF-2α and HIF-β, and activates an HRE promoter. By measuring fluorescence intensity, luciferase activity can be determined, thereby assessing the ability of the HIF-2α agonist to promote transcription.
Experimental method: A total of 6000 stably transfected 786-O cells stably containing HRE and Luc sequences are seeded in each well of a 96-well plate, and 100 µL of RPMI-1640 culture medium containing 10% fetal bovine serum is added to each well. After 24 hours, a compound at a corresponding concentration is added to each well. A blank group is set as a control. Only a DMSO solvent is added in the well of the blank group. For initial compound screening, both tafamidis and tafamidis meglumine are tested at two concentrations: 2 µM and 20 µM. For concentration-gradient determination, each concentration is tested in triplicate. After co-incubation for 24 hours, the culture medium is discarded, and 20 µL of firefly luciferase reporter gene cell lysis buffer (RG126M, Beyotime) is added to each well. The 96-well plate is shaken on a microplate shaker for 10 minutes. After shaking, 10 µL of lysate is transferred into a white opaque plate, and then 10 µL of Steady-Lumi™ firefly luciferase assay reagent (RG058S, Beyotime) is added to each well. Finally, luminescence is measured using a microplate reader (Agilent Synergy Neo2). E20 represents the effect of the compound at a 20 µM concentration, and is calculated as: E20 = fluorescence value of the 20 µM well ÷ fluorescence value of the blank control × 100%. E2 represents the effect of the compound at a 2 µM concentration, and is calculated as: E2 = fluorescence value of the 2 µM well ÷ fluorescence value of the blank control × 100%. EC50 is the compound concentration at which the agonistic efficacy is increased by 50% relative to the blank control. The agonistic efficacy of a compound is determined by calculating the concentration (EC50) required to achieve a 50% increase in the fluorescence activity relative to the blank control and a maximum activation percentage (Emax). The maximum activation percentage (Emax) of an agonist refers to a ratio, expressed as a percentage, of the fluorescence value corresponding to the maximal effect (observed maximal response) induced when the agonist concentration reaches receptor-binding saturation in a particular receptor system, to the fluorescence value of the receptor system in the absence of agonist. In this experiment, Vyndaqel is directly used in place of tafamidis meglumine.

T1 sequence (Q99814 whole entry): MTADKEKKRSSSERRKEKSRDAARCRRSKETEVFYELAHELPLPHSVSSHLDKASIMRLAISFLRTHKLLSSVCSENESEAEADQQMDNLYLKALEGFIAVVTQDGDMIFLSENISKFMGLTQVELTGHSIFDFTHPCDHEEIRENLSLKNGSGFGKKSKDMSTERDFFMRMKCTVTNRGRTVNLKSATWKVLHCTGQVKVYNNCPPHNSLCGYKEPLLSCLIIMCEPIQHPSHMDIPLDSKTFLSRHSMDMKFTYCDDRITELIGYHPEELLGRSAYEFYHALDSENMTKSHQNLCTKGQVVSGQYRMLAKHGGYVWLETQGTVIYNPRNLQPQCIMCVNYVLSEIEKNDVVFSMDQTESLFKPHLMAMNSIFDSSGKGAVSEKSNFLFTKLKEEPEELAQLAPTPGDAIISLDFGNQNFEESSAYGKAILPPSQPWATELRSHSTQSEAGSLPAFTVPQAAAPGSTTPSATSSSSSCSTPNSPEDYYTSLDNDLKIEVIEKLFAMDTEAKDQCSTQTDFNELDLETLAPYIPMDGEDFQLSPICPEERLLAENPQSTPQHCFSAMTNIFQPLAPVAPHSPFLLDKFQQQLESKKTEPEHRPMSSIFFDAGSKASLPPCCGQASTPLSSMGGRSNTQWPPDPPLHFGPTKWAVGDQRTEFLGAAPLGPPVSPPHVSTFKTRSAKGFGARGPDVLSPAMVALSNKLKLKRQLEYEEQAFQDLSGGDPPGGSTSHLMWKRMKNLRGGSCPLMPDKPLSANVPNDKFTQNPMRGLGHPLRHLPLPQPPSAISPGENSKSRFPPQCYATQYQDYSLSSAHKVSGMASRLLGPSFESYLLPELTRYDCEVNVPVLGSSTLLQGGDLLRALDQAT
T1 sequence (P27540 whole entry partner): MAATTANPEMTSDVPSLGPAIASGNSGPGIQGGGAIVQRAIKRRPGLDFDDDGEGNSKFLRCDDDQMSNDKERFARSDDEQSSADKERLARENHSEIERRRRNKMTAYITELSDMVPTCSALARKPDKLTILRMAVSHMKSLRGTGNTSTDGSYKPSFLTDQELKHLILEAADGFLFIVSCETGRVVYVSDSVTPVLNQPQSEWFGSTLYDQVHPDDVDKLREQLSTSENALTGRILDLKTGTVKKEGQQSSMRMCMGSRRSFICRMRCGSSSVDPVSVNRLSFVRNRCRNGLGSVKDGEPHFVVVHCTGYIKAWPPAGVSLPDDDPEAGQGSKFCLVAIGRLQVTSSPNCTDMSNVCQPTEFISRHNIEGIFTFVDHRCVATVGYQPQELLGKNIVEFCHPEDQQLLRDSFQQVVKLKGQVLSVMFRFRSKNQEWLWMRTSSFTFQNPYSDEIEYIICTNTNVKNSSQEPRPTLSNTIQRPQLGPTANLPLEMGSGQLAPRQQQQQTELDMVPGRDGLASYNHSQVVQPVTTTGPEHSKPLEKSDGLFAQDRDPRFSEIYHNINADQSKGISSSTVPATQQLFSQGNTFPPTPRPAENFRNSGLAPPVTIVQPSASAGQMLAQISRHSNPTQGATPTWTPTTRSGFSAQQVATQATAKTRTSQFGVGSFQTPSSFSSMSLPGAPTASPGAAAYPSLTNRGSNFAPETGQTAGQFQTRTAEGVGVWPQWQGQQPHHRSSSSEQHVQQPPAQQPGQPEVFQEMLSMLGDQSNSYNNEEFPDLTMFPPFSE

O=C(O)c1ccc2nc(-c3cc(Cl)cc(Cl)c3)oc2c1 [tafamidis meglumine, 1-deoxy-1-(methylamino)-D-glucitol salt of 2-(3,5-dichlorophenyl)-1,3-benzoxazole-6-carboxylic acid]
agonistic efficacy at a 2 µM concentration (E2) (2 µM, 24 hours co-incubation, fluorescence value as % of blank control (DMSO)): 122%
agonistic efficacy at a 20 µM concentration (E20) (20 µM, 24 hours co-incubation, fluorescence value as % of blank control (DMSO)): 223%
EC50 (EC50, concentration required for a 50% increase in fluorescence activity relative to the blank control, 24 hours): 970 nM
Emax (maximum activation percentage) (maximal response as % of fluorescence without agonist): 228%

Source: patent EP4813383A1, “USE OF TAFAMIDIS AND PHARMACEUTICALLY ACCEPTABLE SALT THEREOF IN PREVENTION, ALLEVIATION, OR TREATMENT OF DISEASES ASSOCIATED WITH HIF-2a” (Huaya Jiyuan (Shenzhen) Pharmaceutical Co., Ltd., priority 2024, dated 2025)
